Laboratory results taken from patent US10655163B2, “Methods, kits, and systems for multiplexed detection of target molecules and uses thereof” (THE GENERAL HOSPITAL CORPORATION, priority 2013, dated 2020).
“Also recorded” adds a separate entry of the source.

How the values were obtained:
[1] = tested on: four human cancer cell lines; assay: Proteomic profiling of olaparib and cisplatin treatments; format: cell-based; conditions: FIGS. 15C-15D
Description: Proteomic profiling of olaparib and cisplatin treatments was performed for four human cancer cell lines, showing varying drug sensitivities as measured by viability assays (FIGS. 14A-14B and FIG. 15A).
Drug treatments of cell lines. To test the effect of drug treatment on protein expression levels, the cell lines were treated with a number of different chemotherapeutic or molecularly targeted drugs. […] DNA-damaging agents olaparib and cisplatin were applied to cells for 3 days. Changes in protein expression levels were compared to medium controls under identical conditions but without drug treatment.
Data analysis: calculating proteomic expression profiles. Protein expression profiles were extracted from raw data as follows. First, raw DNA counts were normalized via the mean of the internal NanoString positive controls, which account for hybridization efficiency. […]
Correlation between single-cell analysis and bulk measurement was calculated in GraphPad Prism. Spearman r values were calculated without assuming a normal, consistent distribution. Two-sided P values were calculated, where significant markers were identified by comparing two groups (for example, treated versus untreated) in Prism and performing pairwise t tests with an FDR of 0.2 for multiple test correction error. […] Class separability was measured by the Bhattacharya distance.

[2] = tested on: HT1080 fibrosarcoma cell lines; assay: Taxol dose response screen in HT1080 cells, ABCD protein marker profiling; format: cell-based, human; conditions: different doses of taxol
Text: Having established feasibility of inter- and intrapatient analyses in clinical samples, it was next sought to explore the feasibility of monitoring cancer treatment over time. To this end, it was first sought to determine if known pathway responses to different drug treatments could be discriminated. […]. […] Notable examples include pS6RP for targeted treatments, and pH2A.X, pATM/ATR (phospho-ataxia telangiectasia mutated/ATM- and Rad3-related) substrate, and cleaved PARP for DNA-damaging agents. Unexpected results, such as epigenetic histone modifications after treatment with a phosphatidylinositol 3-kinase inhibitor (PI3Ki) was also found (FIG. 15E). For additional in vitro validation of treatment, HT1080 fibrosarcoma cell lines were treated with four different doses of taxol.
To evaluate the assay's ability to measure even small marker changes, HT1080 human fibrosarcoma cells were treated with taxol at […] different doses. Marker changes at high doses were compared to marker changes quantified by an independent immunofluorescence screen (FIG. 16A). […] These in vitro studies established that the marker panel could indeed measure pathway changes in response to varying drug mechanisms; furthermore, these changes could be detected in a sensitive, dose-dependent manner.
Immunofluorescence. […]

SMILES: N.N.[Cl][Pt][Cl] [cisplatin]
- changes in DNA damage and apoptosis markers [1]: degradation of Bim and up-regulation of pERK

SMILES: CC(=O)O[C@H]1C(=O)[C@@]2(C)[C@H]([C@H](OC(=O)c3ccccc3)[C@]3(O)C[C@H](OC(=O)[C@H](O)[C@@H](NC(=O)c4ccccc4)c4ccccc4)C(C)=C1C3(C)C)[C@]1(OC(C)=O)CO[C@@H]1C[C@@H]2O [taxol, paclitaxel]
- protein marker changes in response to taxol treatment [2]: dose-response changes; also recorded: dose-response curves
